Test system: Aphis craccivora
Assay: Insecticidal activity against Aphis craccivora (cowpea aphid) infested tender soybean shoots exposed to 500 mg/L compound solution assessed as insect mortality measured 24 hr post compound treatment (reference value: 4.1%)
Assay type: functional

Compound	mortality
N#Cc1cccc(C2N3CCN(Cc4ccc(Cl)nc4)C3=C([N+](=O)[O-])C(c3ccco3)C2(C#N)C#N)c1 (configuration not stated)	0%
N#CC1(C#N)C(c2ccco2)C([N+](=O)[O-])=C2N(Cc3ccc(Cl)nc3)CCN2C1c1ccc(OC(F)(F)F)cc1 (configuration not stated)	0%
N#CC1(C#N)C(c2ccco2)C([N+](=O)[O-])=C2N(Cc3ccc(Cl)nc3)CCN2C1c1ccc(F)cc1 (configuration not stated)	64.21%
Cc1ccc(C2N3CCN(Cc4ccc(Cl)nc4)C3=C([N+](=O)[O-])C(c3ccco3)C2(C#N)C#N)c(F)c1 (configuration not stated)	100%
N#CC1(C#N)C(c2ccco2)C([N+](=O)[O-])=C2N(Cc3ccc(Cl)nc3)CCN2C1c1ccc(Br)cc1Cl (configuration not stated)	0%
N#CC1(C#N)C(c2ccco2)C([N+](=O)[O-])=C2N(Cc3ccc(Cl)nc3)CCN2C1c1ccc(C(F)(F)F)c(F)c1 (configuration not stated)	96.8%
N#CC1(C#N)C(c2ccco2)C([N+](=O)[O-])=C2N(Cc3ccc(Cl)nc3)CCN2C1c1ccc(OC(F)(F)F)c(Cl)c1 (configuration not stated)	0%
N#Cc1ccc(C2N3CCN(Cc4ccc(Cl)nc4)C3=C([N+](=O)[O-])C(c3ccco3)C2(C#N)C#N)cc1 (configuration not stated)	0%
Cc1ccc(C2N3CCN(Cc4ccc(Cl)nc4)C3=C([N+](=O)[O-])C(c3ccco3)C2(C#N)C#N)cc1 (configuration not stated)	0%
Cc1ccc(F)c(C2N3CCN(Cc4ccc(Cl)nc4)C3=C([N+](=O)[O-])C(c3ccco3)C2(C#N)C#N)c1 (configuration not stated)	73.9%
N#CC1(C#N)C(c2ccco2)C([N+](=O)[O-])=C2N(Cc3ccc(Cl)nc3)CCN2C1c1cccc(F)c1F (configuration not stated)	48.8%
N#CC1(C#N)C(c2ccco2)C([N+](=O)[O-])=C2N(Cc3ccc(Cl)nc3)CCN2C1c1ccc(Cl)cc1F (configuration not stated)	56.7%
Cc1ccc(F)cc1C1N2CCN(Cc3ccc(Cl)nc3)C2=C([N+](=O)[O-])C(c2ccco2)C1(C#N)C#N (configuration not stated)	0%
N#CC1(C#N)C(c2ccco2)C([N+](=O)[O-])=C2N(Cc3ccc(Cl)nc3)CCN2C1c1ccccc1 (configuration not stated)	0%
N#CC1(C#N)C(c2ccco2)C([N+](=O)[O-])=C2N(Cc3ccc(Cl)nc3)CCN2C1c1cc(C(F)(F)F)ccc1F (configuration not stated)	100%
N#CC1(C#N)C(c2ccco2)C([N+](=O)[O-])=C2N(Cc3ccc(Cl)nc3)CCN2C1c1cccc([N+](=O)[O-])c1 (configuration not stated)	0%
N#CC1(C#N)C(c2ccco2)C([N+](=O)[O-])=C2N(Cc3ccc(Cl)nc3)CCN2C1c1ccc(Cl)cc1Cl (configuration not stated)	85.9%
N#CC1(C#N)C(c2ccco2)C([N+](=O)[O-])=C2N(Cc3ccc(Cl)nc3)CCN2C1c1ccc([N+](=O)[O-])cc1 (configuration not stated)	0%
N#CC1(C#N)C(c2ccco2)C([N+](=O)[O-])=C2N(Cc3ccc(Cl)nc3)CCN2C1c1cccc(Br)c1 (configuration not stated)	75.8%
N#CC1(C#N)C(c2ccco2)C([N+](=O)[O-])=C2N(Cc3ccc(Cl)nc3)CCN2C1c1ccc(Cl)cc1C(F)(F)F (configuration not stated)	100%
COc1ccc(C2N3CCN(Cc4ccc(Cl)nc4)C3=C([N+](=O)[O-])C(c3ccco3)C2(C#N)C#N)cc1 (configuration not stated)	0%
CN(C)c1ccc(C2N3CCN(Cc4ccc(Cl)nc4)C3=C([N+](=O)[O-])C(c3ccco3)C2(C#N)C#N)cc1 (configuration not stated)	0%

Test system: Aphis craccivora
Assay: Insecticidal activity against Aphis craccivora (cowpea aphid) infested tender soybean shoots exposed to compound solution assessed as insect mortality measured 24 hr post compound treatment (reference value: 4.1%)
Assay type: functional

Compound	LC50
Cc1ccc(C2N3CCN(Cc4ccc(Cl)nc4)C3=C([N+](=O)[O-])C(c3ccco3)C2(C#N)C#N)c(F)c1 (configuration not stated)	5.52 µM
N#CC1(C#N)C(c2ccco2)C([N+](=O)[O-])=C2N(Cc3ccc(Cl)nc3)CCN2C1c1ccc(C(F)(F)F)c(F)c1 (configuration not stated)	87.4 µM
O=[N+]([O-])/N=C1\NCCN1Cc1ccc(Cl)nc1 [IMIDACLOPRID]	35 µM
N#CC1(C#N)C(c2ccco2)C([N+](=O)[O-])=C2N(Cc3ccc(Cl)nc3)CCN2C1c1cc(C(F)(F)F)ccc1F (configuration not stated)	113 µM
N#CC1(C#N)C(c2ccco2)C([N+](=O)[O-])=C2N(Cc3ccc(Cl)nc3)CCN2C1c1ccc(Cl)cc1C(F)(F)F (configuration not stated)	87.2 µM

Reference: ChEMBL document CHEMBL3045280, “Designing Tetrahydroimidazo[1,2-a]pyridine derivatives via catalyst-free Aza-Diels-Alder reaction (ADAR) and their insecticidal evaluation” (2010)
